Literature values, collected in patent US20250082624A1, “METHODS OF TREATING COGNITIVE IMPAIRMENT” (NeuroTherapia, Inc., priority 2023, published 2025).

System: rats
Conditions: intracerebroventricular administration; cited from earlier work

## Cc1c(C(=O)c2cccc3ccccc23)c2cccc3c2n1[C@H](CN1CCOCC1)CO3 [WIN 55,212-2]
  Aβ-induced microglial activation, cognitive impairment, loss of neuronal markers: prevented A13-induced microglial activation, cognitive impairment, and loss of neuronal markers
